BindingDB's records for doi:10.1016/s0960-894x(03)00356-1 (Abbott Laboratories, 2003)

Target: Histamine H3 receptor (Rattus norvegicus) (UniProt Q9QYN8)
Test: Compound was tested for its binding affinity towards rat cortical Histamine H3L receptor

Histamine H3 receptor (Rattus norvegicus), sequence (Q9QYN8 whole entry, looked up): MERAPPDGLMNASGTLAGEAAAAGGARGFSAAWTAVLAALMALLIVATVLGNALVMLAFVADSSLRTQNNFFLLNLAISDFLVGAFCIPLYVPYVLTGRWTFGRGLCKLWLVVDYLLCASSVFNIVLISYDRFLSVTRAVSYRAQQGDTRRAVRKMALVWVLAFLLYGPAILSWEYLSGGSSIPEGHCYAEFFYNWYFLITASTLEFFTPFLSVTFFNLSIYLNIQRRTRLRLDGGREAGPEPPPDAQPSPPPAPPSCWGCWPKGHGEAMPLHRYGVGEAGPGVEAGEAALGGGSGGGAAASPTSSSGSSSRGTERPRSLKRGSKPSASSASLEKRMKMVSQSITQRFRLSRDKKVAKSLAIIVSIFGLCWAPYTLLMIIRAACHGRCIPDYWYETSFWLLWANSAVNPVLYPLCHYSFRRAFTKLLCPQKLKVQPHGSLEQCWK

CN(C)CCCNc1c2c(nc3c1CCCC3)CCCCC2
Ki: 158 nM
